Where two headings read alike, the source gives them in different places.
Tests used:
[1] = Part B (MAD): plasma PK of Formula (IIa) and its metabolites after once-daily oral Formula (IIa) for 7 days, fasted; assay type: in vivo, human; conditions: for Cmax / half-life / AUC(0-t) / Tmax / AUC(0-inf): human, in vivo
Description: Part B was a blinded, randomized, placebo-controlled MAD study consisting of four cohorts of eight subjects randomized 6:2 to receive Formula (IIa) or placebo. […] To control for the possible effect of the IL28b genotype, the number of subjects with CC alleles was capped at three per cohort.
(§1) The starting dose was determined by the SRC based on review of all safety and any available PK/PD data from Part A. All subjects were dosed in the fasted state with Formula (IIa) daily, from Day 1 until […]. All subjects had nothing by mouth other than water for at least 10 hours prior to daily dosing and for 4 hours thereafter. In Part B, all subjects were administered the study medication orally with approximately 240 mL of water at the same time every day (+/−10 minutes).
A subset of blood samples shown in Table 3 above was used for the PK evaluation of plasma trough concentrations (Table 4). In addition, blood sample assessment of antiviral response was collected according to the following sampling schedule for Part B (Table 4).
All plasma PK calculations were performed using actual time points calculated relative to the time of last drug administration.
PK analysis was conducted for all enrolled subjects that received any dose of Formula (IIa) with sufficient plasma sample data to assess PK parameters. […] Data analysis was performed using a validated version of WinNonlin® Enterprise (Version 5.2) software, and summary tables and figures were generated using a validated version of WinNonlin® Autopilot™ (Version 1.1.1) and other reporting tools, including SigmaPlot®.

[2] = system: HCV replicon cell line AVA5 [sub-genomic (CON1), genotype 1b]; assay: 3-day HCV replicon antiviral assay (blot hybridization of intracellular HCV RNA), alone and with sofosbuvir; assay type: cell-based; conditions: Hepatitis C virus, Ava5, 72 h, read-out: IC50 (intracellular HCV RNA)
HCV RNA = assay: Part B (MAD): antiviral response (HCV RNA viral load) in treatment naive subjects with chronic HCV infection; assay type: in vivo, human
Source text: Part B was a blinded, randomized, placebo-controlled MAD study consisting of four cohorts of eight subjects randomized 6:2 to receive Formula (IIa) or placebo. A total of 30 treatment naïve subjects with CHC infection were enrolled in and a total of 29 subjects (22 subjects administered Formula (IIa) and 7 subjects administered placebo) completed Part B of the study. One subject administered placebo withdrew from the study on Day 2. Subjects infected with HCV-1 and HCV-3 genotypes were enrolled, and no subjects infected with HCV-2 participated in the study. To control for the possible effect of the IL28b genotype, the number of subjects with CC alleles was capped at three per cohort.
as §1
A subset of blood samples shown in Table 3 above was used for the PK evaluation of plasma trough concentrations (Table 4). […]

CO[C@H]1C(OP(=O)(OC[C@H]2O[C@@H](n3cnc4c(N)ncnc43)CC2O)SCOC(=O)OC(C)C)[C@@H](CO)O[C@H]1n1ccc(=O)[nH]c1=O (some centres unmarked) [Formula (IIa)]
Cmin ([1]; 200 mg Formula (IIa) QD oral, fasted, Day 7, plasma, arithmetic mean (CV %)): 0.00 (NC) ng/ml | Tmin ([1]; 200 mg Formula (IIa) QD oral, fasted, Day 7, plasma, median (min, max)): 0.00 h | Cmin ([1]; 400 mg Formula (IIa) QD oral, fasted, Day 7, plasma, arithmetic mean (CV %)): 0.00 (NC)^ ng/ml | Tmin ([1]; 400 mg Formula (IIa) QD oral, fasted, Day 7, plasma, median (min, max)): 0.00 h | Cmin ([1]; 900 mg Formula (IIa) QD oral, fasted, Day 7, plasma, arithmetic mean (CV %)): 0.00 (NC) ^ ng/ml | Tmin ([1]; 900 mg Formula (IIa) QD oral, fasted, Day 7, plasma, median (min, max)): 0.00 h | Cmax ([1]; 200 to 900 mg Formula (IIa), Days 1 and 7, read-out: Cmax range): 0.531 to 6.66 ng/mL | half-life ([1]; Day 1, 400 mg and 900 mg QD doses, read-out: mean plasma t1/2 range): 0.963 to 1.05 h | AUC(0-t) ([1]; Day 1, 200-900 mg Formula (IIa) QD, read-out: mean AUC0-24 range across dose levels): 0.512 to 7.91 ng·h/mL | Cmax ([1]; Day 1, 200-900 mg Formula (IIa) QD, read-out: mean Cmax range across dose levels): 0.531 to 3.75 ng/mL | Tmax ([1]; Day 1, 200-900 mg Formula (IIa) QD, read-out: median Tmax, range across dose levels): 1 to 1.51 h | half-life ([1]; Day 7, 400 mg and 900 mg QD doses, read-out: mean plasma t1/2 range): 0.684 to 1.07 h | AUC(0-t) ([1]; Day 7, 200-900 mg Formula (IIa) QD, read-out: mean AUC0-24 range across dose levels): 0.77 to 13.7 ng·h/mL | Cmax ([1]; Day 7, 200-900 mg Formula (IIa) QD, read-out: mean Cmax range across dose levels): 0.885 to 6.66 ng/mL | Tmax ([1]; Day 7, 200-900 mg Formula (IIa) QD, read-out: median Tmax, range across dose levels): 1 to 1.28 h | half-life ([1]; Days 1 and 7, across dose levels, read-out: terminal half-life (t1/2), range of means): 0.684 to 1.07 h | AUC(0-t) ([1]; po, 200 mg, 200 mg Formula (IIa) QD oral, fasted, Day 1, plasma, arithmetic mean (CV %), read-out: AUC0-24): 0.512 ng·h/mL | AUC(0-t) ([1]; po, 200 mg, 200 mg Formula (IIa) QD oral, fasted, Day 1, plasma, arithmetic mean (CV %), read-out: AUC0-t): 0.393 ng·h/mL | Cmax ([1]; po, 200 mg, 200 mg Formula (IIa) QD oral, fasted, Day 1, plasma, arithmetic mean (CV %), read-out: Cmax): 0.531 ng/mL | Tmax ([1]; po, 200 mg, 200 mg Formula (IIa) QD oral, fasted, Day 1, plasma, median (min, max), read-out: Tmax): 1 h | AUC(0-t) ([1]; po, 200 mg, 200 mg Formula (IIa) QD oral, fasted, Day 7, plasma, arithmetic mean (CV %), footnote: AUC0-24 = AUC0-t on Day 7, read-out: AUC0-24): 0.77 ng·h/mL | AUC(0-t) ([1]; po, 200 mg, 200 mg Formula (IIa) QD oral, fasted, Day 7, plasma, arithmetic mean (CV %), read-out: AUC0-t): 1.41 ng·h/mL | Cmax ([1]; po, 200 mg, 200 mg Formula (IIa) QD oral, fasted, Day 7, plasma, arithmetic mean (CV %), read-out: Cmax): 0.885 ng/mL | Tmax ([1]; po, 200 mg, 200 mg Formula (IIa) QD oral, fasted, Day 7, plasma, median (min, max), read-out: Tmax): 1 h | AUC(0-t) ([1]; po, 400 mg, 400 mg Formula (IIa) QD oral, fasted, Day 1, plasma, arithmetic mean (CV %), read-out: AUC0-24): 7.91 ng·h/mL | AUC(0-t) ([1]; po, 400 mg, 400 mg Formula (IIa) QD oral, fasted, Day 1, plasma, arithmetic mean (CV %), read-out: AUC0-t): 3.27 ng·h/mL | Cmax ([1]; po, 400 mg, 400 mg Formula (IIa) QD oral, fasted, Day 1, plasma, arithmetic mean (CV %), read-out: Cmax): 2.13 ng/mL | half-life ([1]; po, 400 mg, 400 mg Formula (IIa) QD oral, fasted, Day 1, plasma, arithmetic mean (CV %), read-out: t1/2 (converted)): 1.05 h | Tmax ([1]; po, 400 mg, 400 mg Formula (IIa) QD oral, fasted, Day 1, plasma, median (min, max), read-out: Tmax): 1.51 h | AUC(0-t) ([1]; po, 400 mg, 400 mg Formula (IIa) QD oral, fasted, Day 7, plasma, arithmetic mean (CV %), footnote: AUC0-24 = AUC0-t on Day 7, read-out: AUC0-24): 2.71 ng·h/mL | AUC(0-t) ([1]; po, 400 mg, 400 mg Formula (IIa) QD oral, fasted, Day 7, plasma, arithmetic mean (CV %), read-out: AUC0-t): 3.1 ng·h/mL | Cmax ([1]; po, 400 mg, 400 mg Formula (IIa) QD oral, fasted, Day 7, plasma, arithmetic mean (CV %), read-out: Cmax): 2.52 ng/mL | half-life ([1]; po, 400 mg, 400 mg Formula (IIa) QD oral, fasted, Day 7, plasma, arithmetic mean (CV %), read-out: t1/2 (converted)): 0.684 h | Tmax ([1]; po, 400 mg, 400 mg Formula (IIa) QD oral, fasted, Day 7, plasma, median (min, max), read-out: Tmax): 1.28 h | AUC(0-t) ([1]; po, 900 mg, 900 mg Formula (IIa) QD oral, fasted, Day 1, plasma, arithmetic mean (CV %), read-out: AUC0-24): 4.58 ng·h/mL | AUC(0-t) ([1]; po, 900 mg, 900 mg Formula (IIa) QD oral, fasted, Day 1, plasma, arithmetic mean (CV %), read-out: AUC0-t): 5.31 ng·h/mL | Cmax ([1]; po, 900 mg, 900 mg Formula (IIa) QD oral, fasted, Day 1, plasma, arithmetic mean (CV %), read-out: Cmax): 3.75 ng/mL | half-life ([1]; po, 900 mg, 900 mg Formula (IIa) QD oral, fasted, Day 1, plasma, arithmetic mean (CV %), read-out: t1/2 (converted)): 0.963 h | Tmax ([1]; po, 900 mg, 900 mg Formula (IIa) QD oral, fasted, Day 1, plasma, median (min, max), read-out: Tmax): 1.04 h | AUC(0-t) ([1]; po, 900 mg, 900 mg Formula (IIa) QD oral, fasted, Day 7, plasma, arithmetic mean (CV %), footnote: AUC0-24 = AUC0-t on Day 7, read-out: AUC0-24): 13.7 ng·h/mL | AUC(0-t) ([1]; po, 900 mg, 900 mg Formula (IIa) QD oral, fasted, Day 7, plasma, arithmetic mean (CV %), read-out: AUC0-t): 9.39 ng·h/mL | Cmax ([1]; po, 900 mg, 900 mg Formula (IIa) QD oral, fasted, Day 7, plasma, arithmetic mean (CV %), read-out: Cmax): 6.66 ng/mL | half-life ([1]; po, 900 mg, 900 mg Formula (IIa) QD oral, fasted, Day 7, plasma, arithmetic mean (CV %), read-out: t1/2 (converted)): 1.07 h | Tmax ([1]; po, 900 mg, 900 mg Formula (IIa) QD oral, fasted, Day 7, plasma, median (min, max), read-out: Tmax): 1.25 h | AUC(0-inf) ([1]; 400 mg Formula (IIa) QD oral, fasted, Day 1, plasma, arithmetic mean (CV %)): 8.04 ng·h/mL | AUC(0-inf) ([1]; 900 mg Formula (IIa) QD oral, fasted, Day 1, plasma, arithmetic mean (CV %)): 7.25 ng·h/mL | mean trough levels ([1]; multiple once daily oral Formula (IIa) QD for 7 days, fasted): BLQ | IC50 [2]: 31.7 nM | Peak individual viral load drop (HCV RNA; 200 mg Formula (IIa) QD): 1.5 log10 | Peak individual viral load drop (HCV RNA; 400 mg Formula (IIa) QD): 1.9 log10
